Source: US20250163104A1, “MACROCYCLIC IMMUNOMODULATORS” (priority 2021, published 2025)
Where a SMILES comes first, the peptide text is derived from it. Bridges are numbered along the chain shown (N, C = ends). [ ]: non-standard residue; d: D form. Bip = N[C@@H](Cc1ccc(-c2ccccc2)cc1)C(=O)O; Orn = NCCC[C@H](N)C(=O)O; Dab = NCC[C@H](N)C(=O)O

target: T1, human PD-1 / PD-L1-Ig binding on Jurkat cell line over-expressing human PD-1 (Jurkat-PD-1) (Homo sapiens, UniProt Q15116); assay: Jurkat-PD-1 Cell Binding High-Content Screening Assay (CBA); format: cell-based; conditions: Jurkat-PD-1 cells, PE-labeled PD-L1-Ig 20 nM final; read-out: Jurkat HPD1_PDL1 IC50
T1 construct: expressed in transfected cells; host or cells: Jurkat
T1 sequence (Q15116 25-288): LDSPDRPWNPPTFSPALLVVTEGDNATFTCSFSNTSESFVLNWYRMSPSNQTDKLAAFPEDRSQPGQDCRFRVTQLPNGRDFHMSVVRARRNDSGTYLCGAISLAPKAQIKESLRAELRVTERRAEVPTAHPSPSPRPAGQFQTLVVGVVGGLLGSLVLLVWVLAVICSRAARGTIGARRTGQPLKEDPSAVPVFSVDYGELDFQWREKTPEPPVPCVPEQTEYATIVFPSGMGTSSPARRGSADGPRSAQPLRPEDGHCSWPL
Method in brief: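 Jurkat cells over-expressing human PD-1, in DMEM/10% FCS, pre-incubated with compound 2 h at 37° C. PE-labeled human PD-L1-Ig (20 nM final) added for 1 h; cells fixed in paraformaldehyde with Hoechst 33342 nuclear stain, washed, and bound fluorescence quantified by high-content imaging.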

Row | IC50 | SMILES
1 | 20.7 nM | CC(C)C[C@@H]1NC(=O)[C@H](CCCCN)NC(=O)[C@@H](CC(C)C)NC(=O)[C@H](CCCN)NC(=O)[C@H](C(C)C)NC(=O)[C@H](Cc2ccc(-c3ccccc3)cc2)NC(=O)[C@H](C(C)C)NC(=O)[C@H](Cc2c[nH]c3ccccc23)NC(=O)[C@H](CC(=O)O)NC(=O)[C@H](Cc2ccc(O)cc2)NC(=O)[C@H](CC(N)=O)NC(=O)CSC[C@@H](C(=O)N[C@@H](C)C(N)=O)NC(=O)[C@H](CO)NC(=O)[C@H](C(C)C)NC1=O [Compound 1132] ({CH2CO}-NYDWV[Bip]V[Orn][dL]KLVSCA-NH2; thioether N-14)
2 | 33.1 nM | CC(C)C[C@@H]1NC(=O)[C@H](CCCCN)NC(=O)[C@@H](CC(C)C)NC(=O)[C@H](CCCN)NC(=O)[C@H](Cc2cnc[nH]2)NC(=O)[C@H](Cc2ccc(-c3ccccc3)cc2)NC(=O)[C@H](C(C)C)NC(=O)[C@H](Cc2c[nH]c3ccccc23)NC(=O)[C@H](CC(=O)O)NC(=O)[C@H](Cc2ccc(O)cc2)NC(=O)[C@H](CC(N)=O)NC(=O)CSC[C@@H](C(=O)N[C@@H](C)C(N)=O)NC(=O)[C@H]([C@@H](C)O)NC(=O)[C@H](C(C)C)NC1=O [Compound 1133] ({CH2CO}-NYDWV[Bip]H[Orn][dL]KLVTCA-NH2; thioether N-14)
3 | 32.1 nM | CC(C)C[C@@H]1NC(=O)[C@H](CCCCN)NC(=O)[C@@H](CC(C)C)NC(=O)[C@H](CCCN)NC(=O)[C@H](Cc2cnc[nH]2)NC(=O)[C@H](Cc2ccc(-c3ccccc3)cc2)NC(=O)[C@H](C(C)C)NC(=O)[C@H](Cc2c[nH]c3ccccc23)NC(=O)[C@H](CC(=O)O)NC(=O)[C@H](Cc2ccc(O)cc2)NC(=O)[C@H](CC(N)=O)NC(=O)CSC[C@@H](C(=O)N[C@@H](C)C(N)=O)NC(=O)[C@H](CO)NC(=O)[C@H](C(C)C)NC1=O [Compound 1134] ({CH2CO}-NYDWV[Bip]H[Orn][dL]KLVSCA-NH2; thioether N-14)
4 | 13 nM | CC(C)C[C@@H]1NC(=O)[C@H](CCCCN)NC(=O)[C@@H](CC(C)C)NC(=O)[C@H](CCCN)NC(=O)[C@H](Cc2cnc[nH]2)NC(=O)[C@H](Cc2ccc(-c3ccccc3)cc2)NC(=O)[C@H](C(C)C)NC(=O)[C@H](Cc2c[nH]c3ccccc23)NC(=O)[C@H](CC(=O)O)NC(=O)[C@H](Cc2ccc(O)cc2)NC(=O)[C@H](CC(N)=O)NC(=O)CSC[C@@H](C(=O)NCC(N)=O)NC(=O)[C@H](CO)NC(=O)[C@H](C(C)C)NC1=O [Compound 1135] ({CH2CO}-NYDWV[Bip]H[Orn][dL]KLVSCG-NH2; thioether N-14)
5 | 50.8 nM | CC(C)C[C@@H]1NC(=O)[C@H](CCCCN)NC(=O)[C@@H](CC(C)C)NC(=O)[C@H](CCCN)NC(=O)[C@H](Cc2cnc[nH]2)NC(=O)[C@H](Cc2ccc(-c3ccccc3)cc2)NC(=O)[C@H](C(C)C)NC(=O)[C@H](Cc2c[nH]c3ccccc23)NC(=O)[C@H](CC(=O)O)NC(=O)[C@H](Cc2ccc(O)cc2)NC(=O)[C@H](CC(N)=O)NC(=O)CSC[C@@H](C(=O)NCC(N)=O)NC(=O)[C@H]([C@@H](C)O)NC(=O)[C@H](C(C)C)NC1=O [Compound 1136] ({CH2CO}-NYDWV[Bip]H[Orn][dL]KLVTCG-NH2; thioether N-14)
6 | 47 nM | CC(C)C[C@@H]1NC(=O)[C@H](CCCCN)NC(=O)[C@@H](CC(C)C)NC(=O)[C@H](CCN)NC(=O)[C@H](Cc2cnc[nH]2)NC(=O)[C@H](Cc2ccc(-c3ccccc3)cc2)NC(=O)[C@H](C(C)C)NC(=O)[C@H](Cc2c[nH]c3ccccc23)NC(=O)[C@H](CC(=O)O)NC(=O)[C@H](Cc2ccc(O)cc2)NC(=O)[C@H](CC(N)=O)NC(=O)CSC[C@@H](C(=O)N[C@@H](C)C(N)=O)NC(=O)[C@H]([C@@H](C)O)NC(=O)[C@H](C(C)C)NC1=O [Compound 1137] ({CH2CO}-NYDWV[Bip]H[Dab][dL]KLVTCA-NH2; thioether N-14)
